# Publication PMC3293837, “Biophysical Property and Broad Anti-HIV Activity of Albuvirtide, a 3-Maleimimidopropionic Acid-Modified Peptide Fusion Inhibitor” (PLoS ONE, 2012)
# Where two headings read alike, the source gives them in different places.
# What was measured:
# [1] = test system: HIV-1NL4-3 I37V/V38T infectious molecular clone; format: cell-based
# Description: The mutant viruses were generated by transient transfection of NL4-3 plasmids into 293T cells. The virus stocks were harvested 48 hours post-transfection and quantified for TCID50. […] In brief, 100 TCID50 viruses were used to infect TZM-bl cells in the presence or absence of serially diluted peptides. Two days post-infection, the cells were harvested and lysed in reporter lysis buffer, and the luciferase activity was measured. The IC50 was calculated as described above using GraphPad Prism software (GraphPad Prism software Inc., San Diego, CA).
# [2] = test system: HIV-1NL4-3 V38A/N42T pseudovirus; format: cell-based
# Description: (§2) HIV-1 pseudoviruses were generated as described previously [32], [55]–[56]. Briefly, 293T cells (5×10^6 cells in 15 ml of growth medium in a T-75 culture flask) were cotransfected with 10 µg of an Env-expressing plasmid and 20 µg of a backbone plasmid pSG3deltaEnv that encodes Env-defective, luciferase-expressing HIV-1 genome using Lipofectamine 2000 reagent (Invitrogen). Pseudovirus-containing culture supernatants were harvested 48 hours after transfection and filtered by 0.45-mm pore size, and stored at −80°C in 1-ml aliquots until use. The 50% tissue culture infectious dose (TCID50) of a single thawed aliquot of each pseudovirus batch was determined in TZM-bl cells. […] Briefly, the peptides were prepared with ten series dilutions in a 3-fold stepwise manner and mixed with 100 TCID50 viruses and incubated 1 hour at room temperature. The mixture was added to TZM-bl cells (10^4/well) and incubation at 37°C for 48 hours. Luciferase activity was measured using luciferase assay regents (Promega, Medison, WI) and a Luminescence Counter (Promega) according to the manufacture's instructions.
# [3] = test system: HIV-1NL4-3 V38M pseudovirus; format: cell-based
# Description: as §2
# [4] = test system: GX2010.36 pseudovirus (CRF01_AE); format: cell-based, HIV-1; conditions: GX2010.36, CRF01_AE, R5; TZM-bl, 48 h; triplicate, mean ± SD of at least three independent experiments
# Description: (§1) A panel of plasmids encoding HIV-1 Envs were obtained through the AIDS Research and Reference Reagent Program (ARRRP), Division of AIDS, NIAID, NIH, including subtype A Env clones pSVIII-92RW020.5 and 92UG037.8 from Dr. B.H. Hahn; subtype B Env clones SC422661.8, TRO.11 and AC10.0.29 from Drs. D. Montefiori, F. Gao and M. Li, pRHPA4259.7 and pREJO4541.67 from Drs. B.H. Hahn and J.F. Salazar-Gonzalez, and pCAAN5342.A2 from Drs. B.H. Hahn and D.L. Kothe; subtype C Env clones Du172.17 and Du422.1 from Drs. D. Montefiori, F. Gao, S. Abdool Karim and G. Ramjee, CAP45.2.00.G3 from Drs. L. Morris, K. Mlisana and D. Montefiori, ZM197M.PB7 from Drs. B.H. Hahn, Y. Li and J.F. Salazar-Gonzalez, ZM109F.PB4 from Drs. E. Hunter and C. Derdeyn. Six CRF07_BC Env clones (CH064.20, CH070.1, CH091.9, CH110.2, CH119.10 and CH120.6) were generous gifts by Dr. Y. Shao in the Chinese Center for Disease Control and Prevention, Beijing, China. A panel of Env clones derived from subtype B′ (B01, B02, B04, and 43-22), CRF01_AE (SHX335.24, YN192.31, AE01, AE03, GX2010.36, GX11.13, GX2010.36H, BJ5.11), and CRF07_BC (BC02, BC03, BC05, BC07, BC14, SC19-15, BJ22-5, YN148R-9, XJ50-6, HB5-3) were kindly provided by Dr. Y. Wang from the National Institute for the Control of Pharmaceutical and Biological Products, Beijing, China.
# [5] = test system: SC19-15 pseudovirus (CRF07_BC); format: cell-based, HIV-1; conditions: SC19-15, CRF07_BC, R5; TZM-bl, 48 h; triplicate, mean ± SD of at least three independent experiments
# Description: as §1
# [6] = test system: BJ5.11 pseudovirus (CRF01_AE); format: cell-based, HIV-1; conditions: BJ5.11, CRF01_AE, R5; TZM-bl, 48 h; triplicate, mean ± SD of at least three independent experiments
# Description: as §1
# [7] = test system: CAAN5342 pseudovirus (subtype B); format: cell-based, HIV-1; conditions: R5, TZM-bl, 48 h, triplicate, mean ± SD of three independent experiments
# Description: as §1
# [8] = test system: HB5-3 pseudovirus (CRF07_BC); format: cell-based, HIV-1; conditions: HB5-3, CRF07_BC, R5; TZM-bl, 48 h; triplicate, mean ± SD of at least three independent experiments
# Description: as §1
# [9] = test system: SF162.LS pseudovirus (subtype B); format: cell-based, HIV-1; conditions: R5, TZM-bl, 48 h, triplicate, mean ± SD of three independent experiments
# Description: as §1
# [10] = test system: HIV-1NL4-3 Env-pseudotyped virus; format: cell-based; conditions: TZM-bl
# Description: as §2
# [11] = test system: HIV-1NL4-3 V38A pseudovirus; format: cell-based
# Description: as §2
# [12] = test system: HIV-1NL4-3 N43K pseudovirus; format: cell-based; conditions: HIV-1NL4-3 N43K; TZM-bl, 48 h; mean ± SD of three independent experiments
# Description: (§3) The mutations were created using double-stranded DNA templates and selection of mutants with DpnI. For each mutation, the two primers contained the desired mutation and occupied the same starting and ending positions on opposite strands of the plasmid DNA. DNA synthesis was carried out by PCR in a 50-µL reaction volume using 1 µL of denatured plasmid template (1 ng/µL), 50 pmol of upper and lower primers and 5 U of high-fidelity thermostable polymerase PrimeStar (Takara, Dalian, China). PCR amplification was carried out for one cycle of denaturation at 98°C for 5 min, then 18 cycles of 98°C for 15 s and 68°C for 15 min, followed a final extension at 72°C for 10 min. The amplicons were treated with the restriction enzyme DpnI for 1 h at 37°C. DpnI-resistant molecules, which were rich in the desired mutants, were recovered by transforming Escherichia coli strain-DH5α to antibiotic resistance. The successful mutations were confirmed by sequencing.
# as §2
# [13] = test system: HIV-1NL4-3 D36S/V38M pseudovirus; format: cell-based; conditions: HIV-1NL4-3 D36S/V38M; TZM-bl, 48 h; mean ± SD of three independent experiments
# Description: as §3, §2
# [14] = test system: N36 (NHR target sequence); test: CD spectroscopy (C-peptide alone or with N36); format: physicochemical, HIV-1; conditions: PBS pH 7.2, 10 µM (methods), room temperature
# Description: CD spectroscopy was performed as previously described, [26]. […] The isolated N- and C-peptides were also tested. […] Data were averaged over three accumulations.
# [15] = test system: N36 (NHR target sequence); conditions: complex with N36; CD at 222 nm, 20–90°C, 1°C per min, 1 µM in PBS buffer
# Description: CD spectroscopy was performed as previously described, [26]. […] The final peptide concentration was 10 µM in PBS buffer (pH 7.2). The isolated N- and C-peptides were also tested. The CD spectra of these individual peptides and peptide mixtures were acquired on MOS-450 spectropolarimeter (Bio-Logic, France) using a 1 nm bandwidth with a 1 nm step resolution from 190 to 260 nm at room temperature. The spectra were corrected by subtraction of a blank corresponding to the solvent. Data were averaged over three accumulations. […] Tm value was detected at protein concentration of 1 µM in PBS buffer.
# [16] = test system: HIV-1NL4-3 I37T/N43K pseudovirus; format: cell-based; conditions: HIV-1NL4-3 I37T/N43K; TZM-bl, 48 h; mean ± SD of three independent experiments
# Description: as §3, §2
substance,measurement,setting,value
enfuvirtide,IC50,"[1]; I37V/V38T infectious molecular clone of HIV-1NL4-3, TZM-bl, 100 TCID50, two days, mean ± SD of three independent experiments",> 750 nM
same,inhibitory activity on I37V/V38T virus (in words),"[1]; infectious molecular clone, T20 up to 750 nM",no any inhibitory activity at a concentration up to 750 nM
same,IC50,"[2]; HIV-1NL4-3 V38A/N42T, TZM-bl, 48 h, mean ± SD of three independent experiments",> 3000 nM
same,resistance change with V38A/N42T (in words),[2]; V38A/N42T double mutations,high-fold resistance changes
same,IC50,"[3]; HIV-1NL4-3 V38M, TZM-bl, 48 h, mean ± SD of three independent experiments",646 ± 57.7 nM
same,resistance change with V38M (in words),[3]; V38M single mutation,high-fold resistance changes
same,IC50,[4],18.1 ± 3.75 nM
same,IC50,[5],7.61 ± 0.97 nM
same,IC50,[6],342 ± 132 nM
same,IC50,[7],723 ± 53.5 nM
same,IC50,[8],23.1 ± 2.55 nM
same,IC50,[9],43.5 ± 9.16 nM
same,IC50,"[10]; Fig. 5A, 100 TCID50, 48 h 37°C, luciferase, mean, three independent experiments, read-out: mean IC50, virus entry",70.7 nM
same,IC50,"[10]; HIV-1NL4-3 WT pseudovirus, Table 3, 48 h, mean ± SD of three independent experiments, read-out: IC50",62.5 ± 11.9 nM
same,IC50,"[11]; HIV-1NL4-3 V38A, TZM-bl, 48 h, mean ± SD of three independent experiments",1260 ± 182 nM
same,resistance change with V38A (in words),[11]; V38A single mutation,high-fold resistance changes
same,IC50,[12],262 ± 44.4 nM
same,IC50,[13],322 ± 60.3 nM
same,CD spectrum / α-helicity with N36,"[14]; equimolar N36, 37°C 30 min, 222 nm",could not form a typical α-helical complex with N36
same,CD spectrum / α-helical conformation of C-peptide alone,"[14]; peptide alone, 190-260 nm",minimum α-helical conformation
same,Tm of C-peptide/N36 complex,[15],undetectable
same,IC50,[16],> 3000 nM
